# How the values were obtained:
# [1] = Pharmacokinetics after intravenous dosing in dogs (plasma concentration by LC-MS/MS); format: in vivo; settings: beagle, dog, dogs (beagles), 0.5 mg/kg intravenous
# Protocol: The pharmacokinetics and cytochrome P450 activity of Example 1 (E-1) were evaluated, and compared to that of Example 187 disclosed in International PCT application PCT/US09/036,501, filed Mar. 9, 2009. Compounds were formulated in a 1:1 solution (by volume) of PEG200: water and dosed at 0.5 mg/kg of body weight. The formulation was dosed intravenously in 2 dogs (beagles), and blood was drawn at the following time points (hours) 0.08, 0.25, 0.5, 1, 2, 4, 6, 8, 24. The plasma concentrations shown in the table below were determined by protein precipitation followed by liquid chromatography—tandem mass spectrometry analysis.
# CYP3A4 = CYP3A4 (Homo sapiens, UniProt P08684); test: Cytochrome P450 inhibition, CYP3A4; format: in vitro ADME
# Protocol: (§1) The compounds of Example 1 and also Example 187 of PCT/US09/036,501 were tested for their activity at the cytochrome P450 enzymes CYP3A4 and CYP2C8. Utilizing procedures similar to that described by Walasky et al. and the references therein, the following human IC50 values were determined (Walsky, R. L.; Obach, R. S. Drug Metab. Dispos. 2004, 32, 647-660.)
# CYP2C8 = molecular target: T1, CYP2C8 (Homo sapiens, UniProt P10632); test: Cytochrome P450 inhibition, CYP2C8; format: in vitro ADME
# T1 sequence (P10632 1-490): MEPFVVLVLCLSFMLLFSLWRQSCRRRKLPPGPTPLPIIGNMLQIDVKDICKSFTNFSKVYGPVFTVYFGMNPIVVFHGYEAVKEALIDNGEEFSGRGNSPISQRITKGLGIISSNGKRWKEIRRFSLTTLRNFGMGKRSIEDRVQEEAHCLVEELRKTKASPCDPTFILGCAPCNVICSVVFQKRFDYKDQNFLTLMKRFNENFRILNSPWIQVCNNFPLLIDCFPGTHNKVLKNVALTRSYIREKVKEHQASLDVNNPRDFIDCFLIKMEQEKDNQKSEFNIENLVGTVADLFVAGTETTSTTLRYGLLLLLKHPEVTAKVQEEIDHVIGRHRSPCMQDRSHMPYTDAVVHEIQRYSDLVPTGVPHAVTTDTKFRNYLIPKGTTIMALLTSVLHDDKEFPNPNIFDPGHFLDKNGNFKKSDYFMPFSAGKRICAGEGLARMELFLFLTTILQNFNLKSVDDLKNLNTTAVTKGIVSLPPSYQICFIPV
# Protocol: as §1
# PHD2 = molecular target: T2, PHD2 (Homo sapiens, UniProt Q9GZT9); test: PHD2 / HIF-1α peptide time resolved fluorescence assay; format: biochemical
# T2 construct: FLAG-tagged full length PHD2 expressed in and purified from baculovirus-infected Sf9 cells; FLAG; made in house; host or cells: baculovirus-infected Sf9 cells
# Protocol: To each well of a 96-well plate was added 1 μL of test compound in DMSO and 20 μl of assay buffer (50 mM Tris pH 7.4/0.01% Tween-20/0.1 mg/ml bovine serum albumin/10 μM ferrous sulfate/1 mM sodium ascorbate/20 μg/ml catalase) containing 0.15 μg/ml FLAG-tagged full length PHD2 expressed in and purified from baculovirus-infected Sf9 cells. After a 30 min preincubation at room temperature, the enzymatic reactions were initiated by the addition of 4 μL of substrates (final concentrations of 0.2 μM 2-oxoglutarate and 0.5 μM HIF-1α peptide biotinyl-DLDLEMLAPYIPMDDDFQL). After 2 hr at room temperature, the reactions were terminated and signals were developed by the addition of a 25 μL quench/detection mix to a final concentration of 1 mM ortho-phenanthroline, 0.1 mM EDTA, 0.5 nM anti-(His)6 LANCE reagent (Perkin-Elmer Life Sciences), 100 nM AF647-labeled streptavidin (Invitrogen), and 2 μg/ml (His)-6-VIAL complex (S. Tan(2001) Protein Expr. Purif. 21, 224-234). The ratio of time resolved fluorescence signals at 665 and 620 nm was determined, and percent inhibition was calculated relative to an uninhibited control sample run in parallel.
# T2 sequence (Q9GZT9 whole entry): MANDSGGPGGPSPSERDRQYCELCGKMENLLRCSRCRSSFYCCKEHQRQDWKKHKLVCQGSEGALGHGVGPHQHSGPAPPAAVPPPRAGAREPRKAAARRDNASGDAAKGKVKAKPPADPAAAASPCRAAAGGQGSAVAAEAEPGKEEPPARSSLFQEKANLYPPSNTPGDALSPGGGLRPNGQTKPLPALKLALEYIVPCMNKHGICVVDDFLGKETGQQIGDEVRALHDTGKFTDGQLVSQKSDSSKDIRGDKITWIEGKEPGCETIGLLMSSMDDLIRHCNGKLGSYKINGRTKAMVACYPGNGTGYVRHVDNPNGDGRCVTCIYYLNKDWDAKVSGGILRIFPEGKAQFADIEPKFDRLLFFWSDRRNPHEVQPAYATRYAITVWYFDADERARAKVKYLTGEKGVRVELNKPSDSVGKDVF
# Chain of CYP3A4 (P08684 whole entry): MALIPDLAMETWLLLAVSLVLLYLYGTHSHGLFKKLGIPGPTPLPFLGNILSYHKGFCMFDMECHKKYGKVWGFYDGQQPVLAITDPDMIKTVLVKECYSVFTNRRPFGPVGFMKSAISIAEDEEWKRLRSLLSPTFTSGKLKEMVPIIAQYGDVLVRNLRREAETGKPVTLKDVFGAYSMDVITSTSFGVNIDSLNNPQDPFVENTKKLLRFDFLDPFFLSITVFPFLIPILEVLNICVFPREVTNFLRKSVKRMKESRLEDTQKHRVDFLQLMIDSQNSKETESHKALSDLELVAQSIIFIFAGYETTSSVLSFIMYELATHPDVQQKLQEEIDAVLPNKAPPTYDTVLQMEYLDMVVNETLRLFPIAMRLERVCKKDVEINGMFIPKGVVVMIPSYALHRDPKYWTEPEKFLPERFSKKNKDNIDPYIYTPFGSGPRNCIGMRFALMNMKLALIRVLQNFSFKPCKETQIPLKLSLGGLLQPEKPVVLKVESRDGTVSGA
smiles,measurement,setting,value
"COc1ccc(-c2ccc(C(C)(C)NC(=O)c3cnc(-c4cccnn4)nc3O)cn2)cc1 [Example 1, 4-Hydroxy-N-{1-[6-(4-methoxyphenyl)pyridin-3-yl]-1-methylethyl}-2-pyridazin-3-ylpyrimidine-5-carboxamide]",MRT,[1],6.57 h
same,clearance,[1],2.49 mL/min/kg
same,concentration at 0.08 h,[1]; 0.08 hours,1500 nM
same,concentration at 0.25 h,[1]; 0.25 hours,1150 nM
same,concentration at 0.5 h,[1]; 0.50 hours,1110 nM
same,concentration at 1 h,[1]; 1.00 hours,944 nM
same,concentration at 2 h,[1]; 2.00 hours,754 nM
same,concentration at 4 h,[1]; 4.00 hours,581 nM
same,concentration at 6 h,[1]; 6.00 hours,374 nM
same,concentration at 8 h,[1]; 8.00 hours,475 nM
same,concentration at 24 h,[1]; 24.00 hours,23 nM
same,half-life,[1]; read-out: T ½ (converted),245 min
same,IC50,CYP3A4,> 50 µM
same,IC50,CYP2C8,49.5 µM
same,"IC50, inhibition of the interaction between PHD2 and a HIF peptide","PHD2; general range statement, units within the value",0.0001 to 10 µM
same,IC50,PHD2; read-out: PHD2 binding activity expressed as IC50,≤ 10 nM

# From patent US8372857B2, “Substituted 4-hydroxypyrimidine-5-carboxamides” (Merck Sharp & Dohme Corp., priority 2009, dated 2013)
